This note sets out measurements from patent US11576902B2, “Inhibition of COVID-19 virus” (Ankh Life Sciences Limited, priority 2020, dated 2023).

Data set [1] has as its system SARS-CoV-2 isolate USA-WA1/2020. In words: Virus plaque formation assay. The class given is cell-based.
For data set [2] the test system is unchanged. In words: RT-PCR assay of viral load (viral RNA copy number in cell supernatant). The class given is cell-based.

Experimental for Vero-E6 cells: Cytotoxicity was measured using Promega™ CytoTox 96™ Nonradioactive Cytotoxicity Assay (cat #G1780, Promega, Madison, Wis., USA).
Cytotoxicity was measured using the Promega™ CytoTox 96™ Nonradioactive Cytotoxicity Assay kit (cat #G1780, Promega, Madison, Wis., USA) in 50 μL reactions and 96-well format (cat #161093, Thermo Fisher Scientific, Waltham, Mass., USA) according to the manufacturer's protocol, except we used 20 μL of 10× Lysis Solution per 100 μL of sample and incubated at 37° C. for 30 minutes to generate the maximum LDH release control. The assay was measured using a BioTeK Synergy™ HT plate reader (model #7091000, BioTek, Winooski, Vt., USA) at an optical density of 490 nm (OD490). Cytotoxicity was measured for ≤60 μM Cmpd. x for all three cell lines (LLC-MK2, Vero E6, and Calu-3). LLC-MK2 cells were assessed for cytotoxicity at 5 days, whereas Vero E6 and Calu-3 cells were assessed for cytotoxicity every 24 hours from 1-5 days.

In the case of `COc1ccc2c3c([nH]c2c1)C(CCCC1=NCCc2c1[nH]c1cc(OC)ccc21)=NCC3` [GZ440-6, 1,3-bis(7-methoxy-4,9-dihydro-3H-pyrido[3,4-b]indol-1-yl)propane], the average cytotoxicity values entry with Vero-E6 cells was “not elevated above controls”. Also, the “inhibition of plaque formation” value in data set [1] (2.0 μM, 5.0 μM and 10.0 μM, Vero-E6 cells, 120 h after infection) is reported as “negligible inhibition”; in data set [1] (20 μM and above, Student's T-Test vs. Camostat/E64d P<0.05) it was “inhibition of plaque formation was significant”. The “viral numbers (RNA copy number)” value in data set [2] (40 μM (P<0.05), FIG. 3C) is “clear reduction in viral numbers”. Besides, the “viral load (viral RNA levels)” value in data set [2] (higher concentrations (20 and 40 μM), 120 hours after infection) is on record as “decreased viral load”. Further, the “viral load (viral RNA levels / viral numbers)” value in data set [2] (lower concentrations (2, 5, 10 μM), 120 hours after infection, listed as compound of the invention) is “no consistent reduction of viral numbers”.
